The text below walks through data of publication PMC4380168 (Bioorganic & medicinal chemistry, 2015).

Like-named read-outs stand apart in the source and are kept apart here.

One series concerns A549 (lung cancer). The series is described as follows: Cytotoxicity against A549 lung carcinoma cell line. Format: cell-based, human.
The subject of series [1] is MDA-MB-231 (breast cancer). The series is described as follows: Cytotoxicity against MDA-MB-231 breast carcinoma cell line. Conditions: Homo sapiens. It counts as cell-based.
In the next series the test system is SK-OV-3 (ovarian cancer). The series is described as follows: Cytotoxicity against SK-OV-3 ovarian carcinoma cell line. It counts as cell-based, human.
The nature of series [2]: Cytotoxicity against MRC-5 cell line. It counts as cell-based, human. To be noted: human, MRC-5 cells (human lung fibroblast, embryonic cell line).
The subject of series [3] is polio-infected HeLa cells. Conditions: at 10^−7 M; ref [5],[4b]; cited from earlier work.
The next series relates to P.f. K1. To be noted: read-out: P.f. K1 IC50; antiprotozoal; ref [5],[4b]; cited from earlier work.
In a further series the test system is MRC-5. To be noted: read-out: MRC-5 IC50; cytotoxicity against human eukaryotic cell lines; ref [5],[4b]; cited from earlier work.
The conditions of series [4]: ref [7]; cited from earlier work.
Series [5] concerns MRC-5 (human lung fibroblast). The experiment in a line: Cytotoxicity against MRC-5 cell line. It counts as cell-based. To be noted: read-out: MRC-5 EC50 (human lung fibroblast); triplicates.

In the case of `CC(=O)c1cccc(N[C@H]2[C@H](N)[C@@](NC(=O)N(C)C)([C@H](C)O)[C@@](C)(O)[C@@]2(O)COC(=O)c2c(C)cccc2O)c1` [Compound 1, pactamycin], the EC50 in the series on A549 (lung cancer) (Homo sapiens, A549, read-out: A549 EC50) amounted to 160 nM; in the series on A549 (lung cancer) (Homo sapiens, A549, read-out: A549 EC50 (lung cancer)), 160 nM; in series [1] (MDA-MB-231, read-out: MDA-MB-231 EC50), 124 nM; in series [1] (MDA-MB-231, read-out: MDA-MB-231 EC50 (breast cancer)) it was 124 nM; with SK-OV-3 (ovarian cancer) (Homo sapiens, SK-OV-3, read-out: SK-OV-3 EC50 (ovarian cancer)), 129 nM; in [2], 53 nM. The “inhibition of polio-infected HeLa cells” value in series [3] was “complete inhibition”. Besides, the IC50 was 14.2 nM with P.f. K1 and 95 nM in the series on MRC-5.

In the case of `CC[C@]1(NC(=O)N(C)C)[C@@H](N)[C@H](Nc2cccc(C(C)=O)c2)[C@](O)(COC(=O)c2c(C)cccc2O)[C@]1(C)O` [Compound 2, 7-Deoxypactamycin], the “antiprotozoal activity relative to 1” value in series [4] was “increased antiprotozoal activity relative to 1”.

Turning to `CC(=O)c1cccc(N[C@H]2[C@H](N)[C@]3(NC(=O)O[C@H]3C)[C@@](C)(O)[C@@]2(O)CO)c1` [Compound 21, De-6-MSA pactamycate], the 50% effective concentration (EC50) worked out at 6000 nM in the series with A549 (lung cancer) (read-out: A549 EC50 (lung cancer), triplicates); 3800 nM in the series on SK-OV-3 (ovarian cancer) (read-out: SK-OV-3 EC50 (ovarian cancer), triplicates); 2930 nM in series [5].

On to jogyamycin [Compound 3], for which the “antiprotozoal activity relative to 1” value in [4] is recorded as “increased antiprotozoal activity relative to 1”.
